Columns and labels:
[1] = Critical micellar concentration (ANS fluorescence); format: physicochemical; conditions: comparison in words
Description: The critical micellar concentration (CMC) of saponins derived from Saponaria officinalis (SO) (Table A7) and derived from Quillaja saponaria (QS) (Table A8, and Table A9) was determined by the method of DeVendittis et al. (A fluorimetric method for the estimation of the critical micelle concentration of surfactants, Analytical Biochemistry, Volume 115, Issue 2, August 1981, Pages 278-286) as follows:
The emission spectrum of 8-Anilinonaphthalene-1-sulfonic acid (ANS) in either purified water (MQ) or PBS (Dulbecco's PBS+/+) was determined at dry weight concentrations of saponins ranging from 1 to 1400 μM to cover the range below and above the CMC. Above the CMC, the fluorescence yield of ANS increases and the wavelength of maximum emission decreases due to portioning of the fluorescent dye into micelles. Fluorescence yields were recorded on a Fluoroskan Ascent FL (Thermo Scientific) at an excitation wavelength of 355 nm, and an emission wavelength of 460 nm. 6 μg at a concentration of 75.86 μM of ANS were used per sample and measurement.

A431 cells = format: cell-based; conditions: A431, Table A6; read-out: IC50 nM (Toxicity)

In the case of `CC(=O)OC1C(C)OC(OC2C(C)OC(OC(=O)[C@]34CCC(C)(C)CC3C3=CCC5[C@@]6(C)CC[C@H](OC7OC(C(=O)NCCN8C(=O)C=CC8=O)C(O)C(OC8OCC(O)C(O)C8O)C7OC7OC(CO)C(O)C(O)C7O)[C@@](C)(C=O)C6CC[C@@]5(C)[C@]3(C)C[C@H]4O)C(OC3OC(C)C(OC4OCC(O)C(OC5OC(CO)C(O)C(O)C5O)C4O)C(O)C3O)C2O)C(O)C1OC1OCC(O)C(O)C1O` (some centres unmarked) [SO1861-Glu-AEM], the “CMC compared with native (underivatised) saponin” value [1] is reported as “lower CMC values” and the IC50 (A431 cells) is reported as > 100000 nM.

— US20230357310A1, “Saponin derivatives with improved therapeutic window” (priority 2019, published 2023)
